The values below come from ChEMBL document CHEMBL1154114, “7-((4-Substituted)piperazin-1-yl) derivatives of ciprofloxacin: synthesis and in vitro biological evaluation as potential antitumor agents” (Bioorg Med Chem, 2009).

Test [1] deals with CHO. Briefly: Inhibition of verapamil-resistant CHO cell proliferation by colony-forming assay. Type of test: cell-based. The note with it: Cricetulus griseus.
The subject of test [2] is CHO. The test can be described thus: Inhibition of CHO cell proliferation by colony-forming assay. The test is classed as cell-based. The note with it: Cricetulus griseus.
For another test, the system named is Drosophila melanogaster. Briefly: Inhibition of Drosophila melanogaster DNA topoisomerase 2-mediated pBR322 DNA relaxation by agarose gel electrophoresis.
For test [3], the system named is MCF7. The test can be described thus: Inhibition of human MCF7 cell proliferation. Type of test: functional, cell-based.
Test [4] is described as follows: Inhibition of human RPMI8226/S cell proliferation. The test is classed as functional, cell-based.
In the next test the target is G-quadruplex DNA. Briefly: Interaction with G-quadruplex DNA assessed by polymerase stop assay.
The next test deals with MG-63. Briefly: Inhibition of human MG63 cell proliferation assessed as bromodeoxyuridine incorporation during DNA synthesis after 48 hrs by ELISA. The test is classed as functional, cell-based. The note with it: MG-63, 48 h. Background: ELISA stands for enzyme-linked immunosorbent assay.
Test [5] deals with HeLa. Briefly: Inhibition of human HeLa cell proliferation assessed as bromodeoxyuridine incorporation during DNA synthesis after 48 hrs by ELISA. The test is classed as functional, cell-based.
A further test concerns NCI-H460. Briefly: Inhibition of human NCI-H460 cell proliferation by sulphorodhamine B assay. Type of test: functional, cell-based.
The test system of another test is MC3T3-E1. Briefly: Inhibition of mouse MC3T3-E1 cell proliferation after 48 to 72 hrs. The test is classed as functional, cell-based.
For the next test, the system named is SK-MEL. The test can be described thus: Inhibition of human SK-MEL cell proliferation by MTT assay. Type of test: functional, cell-based. In general terms: Formazan colour is commonly taken as a measure of viable cells.
A further test deals with A-431. Briefly: Inhibition of human A431 cell proliferation by MTT assay. The test is classed as functional, cell-based.
Another test relates to KB. Briefly: Inhibition of human KB cell proliferation by MTT assay. Type of test: functional, cell-based.
The subject of test [6] is MCF7. Briefly: Inhibition of human MCF7 cell proliferation by MTT assay. The test is classed as functional, cell-based.
In a further test the test system is SW480. Briefly: Inhibition of human SW480 cell proliferation by MTT assay. Type of test: functional, cell-based.
Test [7] deals with HeLa. The test can be described thus: Inhibition of human HeLa cell proliferation. The test is classed as functional, cell-based.
For the next test, the system named is EJ. Briefly: Inhibition of human EJ cell proliferation by MTT assay. The test is classed as functional, cell-based.
Test [8] can be described thus: Inhibition of mouse NIH/3T3 cell proliferation by MTT assay. The note with it: NIH3T3. Type of test: cell-based.
The test system of a further test is NCI-H226. Briefly: Inhibition of human NCI-H226 cell proliferation. Type of test: functional, cell-based.
Test [9] addresses DNA topoisomerase 2-alpha (Homo sapiens) (UniProt P11388). Briefly: Inhibition of human topoisomerase 2 assessed as conversion of catenated to decatenated form of kDNA.
For test [10] the target is unchanged. The test can be described thus: Inhibition of human topoisomerase 2-mediated DNA unwinding activity.
For another test, the system named is HT-29. Briefly: Inhibition of human HT-29 cell proliferation. The test is classed as functional, cell-based.
The nature of test [11]: Inhibition of human MDA231 cell proliferation. The test is classed as functional, cell-based. The note with it: MDA-MB-231.

DNA topoisomerase 2-alpha (Homo sapiens), sequence (P11388 whole entry): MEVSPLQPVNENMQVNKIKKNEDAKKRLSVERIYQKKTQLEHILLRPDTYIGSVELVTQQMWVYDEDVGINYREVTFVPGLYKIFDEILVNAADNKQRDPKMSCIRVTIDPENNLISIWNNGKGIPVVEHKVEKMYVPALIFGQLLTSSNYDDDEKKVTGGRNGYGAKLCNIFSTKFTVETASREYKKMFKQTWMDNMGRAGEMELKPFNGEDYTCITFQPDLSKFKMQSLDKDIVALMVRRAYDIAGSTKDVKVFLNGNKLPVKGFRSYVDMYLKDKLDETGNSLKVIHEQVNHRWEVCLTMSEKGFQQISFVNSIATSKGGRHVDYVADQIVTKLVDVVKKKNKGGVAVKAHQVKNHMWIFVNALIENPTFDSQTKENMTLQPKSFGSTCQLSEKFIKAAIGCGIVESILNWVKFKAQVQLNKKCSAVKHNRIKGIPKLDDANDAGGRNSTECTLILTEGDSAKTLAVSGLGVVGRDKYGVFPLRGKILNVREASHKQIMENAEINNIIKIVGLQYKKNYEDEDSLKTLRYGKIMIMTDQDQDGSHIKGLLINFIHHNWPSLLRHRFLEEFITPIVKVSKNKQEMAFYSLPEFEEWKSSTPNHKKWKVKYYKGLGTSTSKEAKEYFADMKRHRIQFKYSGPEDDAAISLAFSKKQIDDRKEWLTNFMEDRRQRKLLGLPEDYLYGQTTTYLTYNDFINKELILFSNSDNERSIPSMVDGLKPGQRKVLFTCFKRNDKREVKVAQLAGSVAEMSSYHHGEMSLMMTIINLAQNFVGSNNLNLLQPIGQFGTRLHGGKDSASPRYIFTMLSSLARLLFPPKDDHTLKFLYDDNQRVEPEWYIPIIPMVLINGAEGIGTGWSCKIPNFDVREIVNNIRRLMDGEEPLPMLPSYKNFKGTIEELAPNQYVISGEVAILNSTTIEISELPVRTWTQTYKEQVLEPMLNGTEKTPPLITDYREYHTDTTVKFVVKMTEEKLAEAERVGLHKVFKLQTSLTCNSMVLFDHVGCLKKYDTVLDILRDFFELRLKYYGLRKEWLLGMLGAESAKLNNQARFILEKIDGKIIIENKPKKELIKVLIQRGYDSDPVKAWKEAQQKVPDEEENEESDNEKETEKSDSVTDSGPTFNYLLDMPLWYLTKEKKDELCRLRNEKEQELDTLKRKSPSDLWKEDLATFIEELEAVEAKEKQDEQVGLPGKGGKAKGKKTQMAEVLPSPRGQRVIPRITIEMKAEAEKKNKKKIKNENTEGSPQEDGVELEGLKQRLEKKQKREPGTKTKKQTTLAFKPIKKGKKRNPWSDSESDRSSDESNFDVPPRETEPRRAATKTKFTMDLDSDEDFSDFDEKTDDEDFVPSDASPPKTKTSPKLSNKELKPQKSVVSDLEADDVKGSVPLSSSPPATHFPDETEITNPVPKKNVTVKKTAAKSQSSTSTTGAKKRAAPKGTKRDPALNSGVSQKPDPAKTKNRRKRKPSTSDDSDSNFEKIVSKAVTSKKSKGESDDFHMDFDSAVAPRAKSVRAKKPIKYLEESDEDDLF

Turning to `O=C(O)c1cn(C2CC2)c2cc(-c3ccc(O)cc3)c(F)cc2c1=O`, the values for the IC50 in the test with CHO [1] and in the test with CHO [2] were 40 µM and 20 µM, respectively. This compound returned an Activity in the test with Drosophila melanogaster of 130 µM.

As to `N[C@H]1CCN(c2c(F)cc3c(=O)c(C(=O)O)cn4c3c2Oc2c-4ccc3c2ccc2ccccc23)C1`, the IC50 in the test with MCF7 [3] came out at 1 µM; in test [4], 0.7 µM; on G-quadruplex DNA, 0.7 µM.

On to `COc1c(N2C[C@@H]3CCCN[C@@H]3C2)c(F)cc2c(=O)c(C(=O)O)cn(C3CC3)c12` [MOXIFLOXACIN], for which the IC50 came to 230 µM with MG-63 and 320 µM in the test with HeLa [5].

Consider `N[C@@H]1CCN(c2c(F)cc3c(=O)c(C(=O)O)cn4c3c2Oc2c-4ccc3c2ccc2ccccc23)C1`, for which the IC50 in the test on MCF7 [3] amounted to 0.5 µM; in [4], 0.3 µM; at G-quadruplex DNA, 0.06 µM.

Consider `C[C@H]1COc2c(N3CCN(C)CC3)c(F)cc3c(=O)c(C(=O)O)cn1c23` [LEVOFLOXACIN], for which the figures for the IC50 with NCI-H460 and in the test with MC3T3-E1 were 152 µM and 220 µM, respectively.

For the compound `CCn1cc(C(=O)O)c(=O)c2cc(F)c(N3CCNCC3)nc21` [ENOXACIN], the IC50 in the test with SK-MEL was determined as 196 µM; in the test on NCI-H460, 36 µM; in the test on A-431 it was 150 µM; in the test with KB, 137 µM; in the test on MCF7 [6], 193 µM; in the test on SW480, 159 µM. In addition, the IC50 was 170 µM in the test with HeLa [7] and 178 µM in the test with EJ.

Consider `CCn1cc(C(=O)O)c(=O)c2cc(F)c(N3CCNCC3)cc21` [NORFLOXACIN], for which the IC50 is 194 µM with SK-MEL; 86 µM with NCI-H460; 70 µM with A-431; over 1000 µM in [8]; 150 µM in the test on KB; 238 µM in the test with MCF7 [6]. The IC50 with SW480 came out at 168 µM; in the test with HeLa [7], 390 µM; with EJ, 210 µM.

Consider `N[C@@H]1CCN(c2c(F)cc3c(=O)c(C(=O)O)cn4c3c2Oc2c-4ccc3ccccc23)C1`, for which the IC50 with NCI-H226 was 0.01 µM; in the test with HT-29, 0.03 µM; in test [11] it was 0.005 µM. Also, the Activity in test [9] amounted to 0.2 µM; in test [10], 3 µM.

Take `O=C(O)c1cn(C2CC2)c2c(F)c(-c3ccc(O)cc3)c(F)cc2c1=O`: the IC50 came out at 12 µM in the test with CHO [1] and 9 µM in the test on CHO [2]. In the test on Drosophila melanogaster, the Activity was 60 µM.

In the case of `N[C@@H]1[C@H]2CN(c3nc4c(cc3F)c(=O)c(C(=O)O)cn4-c3ccc(F)cc3F)C[C@@H]12` [TROVAFLOXACIN], the IC50 in the test on MC3T3-E1 was under 1.2 µM.

A word on the IC50: it is the concentration needed to halve the response being measured.
